Here are results for 10 compounds from US20250101025A1, “NOVEL PLK1 DEGRADATION INDUCING COMPOUND” (UPPTHERA, INC., priority 2021, published 2025).

Common to all, as to format: cell-based
The target of experiment [1] is T1, PLK1 (Homo sapiens, UniProt P53350).
T1 construct: endogenous in cells; host or cells: HeLa LgBit (Plk1-HiBit KI): HeLa stably expressing LgBit, with HiBit knocked in at the endogenous Plk1 locus by CRISPR/Cas9
Put plainly: Luciferase assay for PLK1 in HeLa LgBit (Plk1-HiBit KI) cell line. The settings on record: compound 300 nM, luminescence after 9 hours. How it is done:
2. Luciferase Assay for PLK1
(1) Preparation and Culture of HeLa LgBit (Plk1-HiBit KI) Cell Line
A HeLa cell line in which the LgBit vector was transfected and expressed stably was prepared. Then, after constructing gRNA and donor to express the HiBit amino acid sequence behind the C-terminal of the Plk1 gene, which was inherent in the cell, it was inserted into the cell together with a vector capable of expressing CRISPR/Cas9. Only the cells in which the insertion was completed and knock-in had progressed were selected, sub-cultured and used.
(2) Treatment of Compounds of the Present Invention and Method of Luciferase Assay
In the case of HeLa LgBit (Plk1-HiBit KI), the compounds were treated after being released after thymidine block, and the process was as follows. Thymidine (Sigma-Aldrich Cat. No. T9250-5G) was completely dissolved in DW and used in the experiment. For thymidine block, the products were treated with 2 mM of thymidine and then incubated for 24 hours. For release and chemical treatment, the medium was suctioned and washed with 1×PBS. TrypLE™ was added and incubated in 37° C. CO2 incubator for 5 min. Cells neutralized by adding complete media were counted through a counter. For each well of a 96-well culture plate (SPL), 3.3×10^4 cells and a total medium volume of 150 μL were seeded and incubated in a CO2 incubator.
Each cell line was incubated in a CO2 incubator for 18 hours, and Endurazine was added to each well to make up 4% of the total volume. After adding the compound of the present invention in a 96-well white plate (SPL) to a concentration of 300 nM, the wavelength of the plate reader (BMG Labtech, CLARIOstar Plus) was set to […], and then the luminescence was tracked in real time.
In Table 2, Activity represents the ratio of the luminescence value of each Exemplary Compound treatment group to DMSO treatment group (+++: <0.3, ++<0.6, +<0.7).

The test system of experiment [2] is MRC-5 cell line. Put plainly: Cell viability assay for MRC-5 cell line (EZ-Cytox cytotoxicity experiment). Particulars: Homo sapiens, MRC5, 120 h, MRC-5 normal cell line, 5 days. As for the experimental part:
4. Cell Viability Assay for MRC-5 Cell Line
(1) Culture of MRC-5 Cell Line
Passage of cultured cells was maintained within P15.
(2) Treatment of Compounds of the Present Invention
Then, it was cultured in 37° C.
(3) Cytotoxicity Experiment
CO2 incubator for 4 hours.

The subject of experiment [3] is H526 cell line. Description: Cell viability assay for NCI-H526 cell line (EZ-Cytox). Particulars: Homo sapiens, NCI-H526, 120 h; H526 cells, 3-fold dilutions 3000 nM to 0.46 nM, 5 days. How it is done:
(1) Culture of NCI-H526 Cell Line
(2) Treatment of Compounds of the Present Invention and Method of Cell Viability Assay
After treating the compound to each well to make the total volume of 200 μL, it was cultured in a CO2 incubator (Thermo Fisher Science, Cat. No. 4111) for 5 days.
The absorbance of the completely cultured sample was measured by setting the wavelength of a plate reader (BMG Labtech, CLARIOstar Plus) to […], and was measured after shaking for 3 minutes in a plate reader before measurement.
In Table 3, Activity represents IC50 value of each Exemplary Compound treatment group to H526 cell line (A: <30 nM, B: <50 nM, C: <100 nM, D: <200 nM, E: <400 nM).

Where [4] appears, read: highest concentration 10000 nM, N.D. = no cytotoxicity until 10 μM, read-out: Activity: IC50 value to MRC-5 cell line, N.D. cells.
The mark [5] stands for this setting: 3-fold dilutions 10000 nM to 1.52 nM, Exemplary Compounds, numeric values, read-out: Activity: IC50 value (nM) to MRC-5 cell line.

The term IC50 denotes the midpoint of a concentration-inhibition curve.

Like-named read-outs stand apart in the source and are kept apart here. A value given as a limit tells only on which side of the number the result lay.

T1 sequence (P53350 whole entry): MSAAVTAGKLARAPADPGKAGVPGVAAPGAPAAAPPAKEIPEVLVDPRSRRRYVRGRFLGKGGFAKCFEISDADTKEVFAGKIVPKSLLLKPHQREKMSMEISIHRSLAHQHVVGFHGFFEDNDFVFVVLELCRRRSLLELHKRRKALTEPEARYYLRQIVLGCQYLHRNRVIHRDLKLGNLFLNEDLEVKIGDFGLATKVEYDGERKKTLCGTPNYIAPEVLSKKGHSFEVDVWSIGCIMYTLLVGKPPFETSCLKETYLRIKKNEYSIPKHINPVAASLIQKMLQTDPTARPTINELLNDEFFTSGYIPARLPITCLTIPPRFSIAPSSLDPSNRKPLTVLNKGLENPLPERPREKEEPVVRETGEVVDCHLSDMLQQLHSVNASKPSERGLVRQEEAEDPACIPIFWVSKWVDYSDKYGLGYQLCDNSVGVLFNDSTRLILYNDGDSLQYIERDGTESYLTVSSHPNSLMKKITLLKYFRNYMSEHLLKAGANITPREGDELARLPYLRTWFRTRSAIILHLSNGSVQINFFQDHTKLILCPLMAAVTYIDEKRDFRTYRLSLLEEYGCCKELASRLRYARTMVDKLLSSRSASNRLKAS

Regarding `COc1cc(C(=O)NN2CCC(N3CC4(CCN(c5ccc(NC6CCC(=O)NC6=O)cc5F)CC4)C3)CC2)ccc1Nc1ncc2c(n1)N(C(C)C)CC(F)(F)C(=O)N2C` (stereo not drawn) [Compound 32, 4-((7,7-difluoro-9-isopropyl-5-methyl-6-oxo-6,7,8,9-tetrahydro-5H-pyrimido[4,5-b][1,4]diazepin-2-yl)amino)-N-(4-(7-(4-((2,6-dioxopiperidin-3-yl)amino)-2-fluorophenyl)-2,7-diazaspiro[3.5]nonan-2-yl)piperidin-1-yl)-3-methoxybenzamide], the “Activity: ratio of the luminescence value of each Exemplary Compound treatment group to DMSO treatment group” value (shortened to “Activity: ratio”) in experiment [1] was “++ (++<0.6)”. Besides, the IC50 in experiment [2] (setting [4]) is greater than 10000 nM; in experiment [3] it was less than 0.05 µM.

On to `COc1cc(C(=O)NC2CC3(CCN(CC4CCN(c5c(F)cc(N(C)C6CCC(=O)NC6=O)cc5F)CC4)CC3)C2)ccc1Nc1ncc2c(n1)N(C(C)C)CC(F)(F)C(=O)N2C` (stereo not drawn) [Compound 29, 4-((7,7-difluoro-9-isopropyl-5-methyl-6-oxo-6,7,8,9-tetrahydro-5H-pyrimido[4,5-b][1,4]diazepin-2-yl)amino)-N-(7-((1-(4-((2,6-dioxopiperidin-3-yl)(methyl)amino)-2,6-difluorophenyl)piperidin-4-yl)methyl)-7-azaspiro[3.5]nonan-2-yl)-3-methoxybenzamide], for which, in experiment [1], the “Activity: ratio” value is reported as “++ (++<0.6)”. Further, the results for the half-maximal inhibitory concentration (IC50) in experiment [2] (setting [5]) and in experiment [3] were 18500 nM and less than 0.05 µM, respectively.

Consider `COc1cc(C(=O)NN2CCC(CCN3CCN(c4cccc(C(=O)NC5CCC(=O)NC5=O)c4)CC3)CC2)ccc1Nc1ncc2c(n1)N(C1CCCC1)CC(F)(F)C(=O)N2C` (stereo not drawn) [Compound 10, 4-((9-cyclopentyl-7,7-difluoro-5-methyl-6-oxo-6,7,8,9-tetrahydro-5H-pyrimido[4,5-b][1,4]diazepin-2-yl)amino)-N-(4-(2-(4-(3-((2,6-dioxopiperidin-3-yl)carbamoyl)phenyl)piperazin-1-yl)ethyl)piperidin-1-yl)-3-methoxybenzamide], for which the “Activity: ratio” value in experiment [1] is listed as “++ (++<0.6)”. Besides, the figures for the IC50 in experiment [2] (setting [4]) and in experiment [3] were greater than 10000 nM and less than 0.03 µM, respectively.

Regarding `COc1cc(C(=O)NN2CCC(CCN3CCN(c4ccc(NC5CCC(=O)NC5=O)cc4F)CC3)CC2)ccc1Nc1ncc2c(n1)N(C1CCCC1)CC(F)(F)C(=O)N2C` (stereo not drawn) [Compound 22, 4-((9-cyclopentyl-7,7-difluoro-5-methyl-6-oxo-6,7,8,9-tetrahydro-5H-pyrimido[4,5-b][1,4]diazepin-2-yl)amino)-N-(4-(2-(4-(4-((2,6-dioxopiperidin-3-yl)amino)-2-fluorophenyl)piperazin-1-yl)ethyl)piperidin-1-yl)-3-methoxybenzamide], in experiment [1], the “Activity: ratio” value is listed as “+++ (+++: <0.3)”. For the same compound, the figures for the IC50 in experiment [2] (setting [4]) and in experiment [3] were greater than 10000 nM and less than 0.03 µM, respectively.

In the case of `COc1cc(C(=O)NN2CCC(CN3CCN(c4ccc(NC5CCC(=O)NC5=O)cc4F)CC3)CC2)ccc1Nc1ncc2c(n1)N(C(C)C)CC(F)(F)C(=O)N2C` (stereo not drawn) [Compound 17, 4-((7,7-difluoro-9-isopropyl-5-methyl-6-oxo-6,7,8,9-tetrahydro-5H-pyrimido[4,5-b][1,4]diazepin-2-yl)amino)-N-(4-((4-(4-((2,6-dioxopiperidin-3-yl)amino)-2-fluorophenyl)piperazin-1-yl)methyl)piperidin-1-yl)-3-methoxybenzamide], in experiment [1], the “Activity: ratio” value was “++ (++<0.6)”. Further, the half-maximal inhibitory concentration (IC50) in experiment [2] (setting [4]) is greater than 10000 nM; in experiment [3], less than 0.05 µM.

With `COc1cc(C(=O)NCC2CC3(CCN(CC4CCN(c5c(F)cc(NC6CCC(=O)NC6=O)cc5F)CC4)CC3)C2)ccc1Nc1ncc2c(n1)N(C(C)C)CC(F)(F)C(=O)N2C` (stereo not drawn) [Compound 30, 4-((7,7-difluoro-9-isopropyl-5-methyl-6-oxo-6,7,8,9-tetrahydro-5H-pyrimido[4,5-b][1,4]diazepin-2-yl)amino)-N-((7-((1-(4-((2,6-dioxopiperidin-3-yl)amino)-2,6-difluorophenyl)piperidin-4-yl)methyl)-7-azaspiro[3.5]nonan-2-yl)methyl)-3-methoxybenzamide], the “Activity: ratio” value in experiment [1] is on record as “+++ (+++: <0.3)”. The figures for the half-inhibitory concentration (IC50) in experiment [2] (setting [5]) and in experiment [3] were 7870 nM and less than 0.03 µM, respectively.

As to `COc1cc(C(=O)NC2CC3(CCN(CC4CCN(c5cccc6c5n(C)c(=O)n6C5CCC(=O)NC5=O)CC4)CC3)C2)ccc1Nc1ncc2c(n1)N(C(C)C)CC(F)(F)C(=O)N2C` (stereo not drawn) [Compound 38, 4-((7,7-difluoro-9-isopropyl-5-methyl-6-oxo-6,7,8,9-tetrahydro-5H-pyrimido[4,5-b][1,4]diazepin-2-yl)amino)-N-(7-((1-(1-(2,6-dioxopiperidin-3-yl)-3-methyl-2-oxo-2,3-dihydro-1H-benzo[d]imidazol-4-yl)piperidin-4-yl)methyl)-7-azaspiro[3.5]nonan-2-yl)-3-methoxybenzamide], the “Activity: ratio” value in experiment [1] was “++ (++<0.6)”. Further, the IC50 in experiment [2] (setting [5]) was 3960 nM; in experiment [3], less than 0.03 µM.

Consider `COc1cc(C(=O)NC2CC3(CCN(CC4CCN(c5ccc(NC6CCC(=O)NC6=O)cc5)CC4)CC3)C2)ccc1Nc1ncc2c(n1)N(C(C)C)CC(F)(F)C(=O)N2C` (stereo not drawn) [Compound 28, 4-((7,7-difluoro-9-isopropyl-5-methyl-6-oxo-6,7,8,9-tetrahydro-5H-pyrimido[4,5-b][1,4]diazepin-2-yl)amino)-N-(7-((1-(4-((2,6-dioxopiperidin-3-yl)amino)phenyl)piperidin-4-yl)methyl)-7-azaspiro[3.5]nonan-2-yl)-3-methoxybenzamide], for which, in experiment [1], the “Activity: ratio” value is “++ (++<0.6)”. Further, the IC50 in experiment [2] (setting [5]) is 10200 nM; in experiment [3], less than 0.03 µM.

Take `COc1cc(C(=O)NN2CCC(CN3CCN(c4c(F)cc(NC5CCC(=O)NC5=O)cc4F)CC3)CC2)ccc1Nc1ncc2c(n1)N(C(C)C)CC(F)(F)C(=O)N2C` (stereo not drawn) [Compound 18, 4-((7,7-difluoro-9-isopropyl-5-methyl-6-oxo-6,7,8,9-tetrahydro-5H-pyrimido[4,5-b][1,4]diazepin-2-yl)amino)-N-(4-((4-(4-((2,6-dioxopiperidin-3-yl)amino)-2,6-difluorophenyl)piperazin-1-yl)methyl)piperidin-1-yl)-3-methoxybenzamide]: the “Activity: ratio” value in experiment [1] is given as “+ (+<0.7)”. Moreover, the IC50 was greater than 10000 nM in experiment [2] (setting [4]) and less than 0.03 µM in experiment [3].

On to `COc1cc(C(=O)NC2CC3(CCN(CC4CCN(c5ccc(N(C)C6CCC(=O)NC6=O)cc5F)CC4)CC3)C2)ccc1Nc1ncc2c(n1)N(C(C)C)CC(F)(F)C(=O)N2C` (stereo not drawn) [Compound 26, 4-((7,7-difluoro-9-isopropyl-5-methyl-6-oxo-6,7,8,9-tetrahydro-5H-pyrimido[4,5-b][1,4]diazepin-2-yl)amino)-N-(7-((1-(4-((2,6-dioxopiperidin-3-yl)(methyl)amino)-2-fluorophenyl)piperidin-4-yl)methyl)-7-azaspiro[3.5]nonan-2-yl)-3-methoxybenzamide], for which the “Activity: ratio” value in experiment [1] is recorded as “+++ (+++: <0.3)”. For the same compound, the IC50 is 6550 nM in experiment [2] (setting [5]) and less than 0.05 µM in experiment [3].
